# Experimental data published in article PMC2662044 (European journal of medicinal chemistry, 2008).
# “Also recorded” adds a separate entry of the source. Read-outs that look alike come from different tables or passages of the source.
# Key:
# Kv1.5 [1] = target: T1, Kv1.5 (Homo sapiens, UniProt P22460); experiment: Kv1.5 inhibition, whole-cell patch-clamp, currents recorded from MEL-C88 cells; format: cell-based; settings: for Selectivity IC50 (Kv1.5)/IC50 (Kv1.3): Table 1
# Kv1.3 [2] = target: T2, Kv1.3 (Mus musculus, UniProt P16390); format: cell-based; settings: for IC50: IC50 Kv1.3, text; for Effect on Kv1.3: concentration of 10 µM where stated
# Kv1.3 [3] = target: T2, Kv1.3; settings: read-out: IC50 Kv1.3; cited from earlier work
# Kv1.5 [4] = target: T1, Kv1.5; settings: Table 1, cited from earlier work; for IC50: read-out: IC50 value Kv1.5
# [5] = cited from earlier work
# [6] = cited from earlier work; remark: listed apart in the source
# [7] = administration for 28 days or 6 months, rats or rhesus macaques; cited from earlier work
# type-1 diabetes = settings: rat models; cited from earlier work
# [8] = tested on: oxazolone-induced allergic contact dermatitis; settings: rat models; cited from earlier work
# [9] = HPLC studies on stability in DMSO stock and Ringer solution; format: physicochemical; settings: data not shown
# T1 sequence (P22460 whole entry): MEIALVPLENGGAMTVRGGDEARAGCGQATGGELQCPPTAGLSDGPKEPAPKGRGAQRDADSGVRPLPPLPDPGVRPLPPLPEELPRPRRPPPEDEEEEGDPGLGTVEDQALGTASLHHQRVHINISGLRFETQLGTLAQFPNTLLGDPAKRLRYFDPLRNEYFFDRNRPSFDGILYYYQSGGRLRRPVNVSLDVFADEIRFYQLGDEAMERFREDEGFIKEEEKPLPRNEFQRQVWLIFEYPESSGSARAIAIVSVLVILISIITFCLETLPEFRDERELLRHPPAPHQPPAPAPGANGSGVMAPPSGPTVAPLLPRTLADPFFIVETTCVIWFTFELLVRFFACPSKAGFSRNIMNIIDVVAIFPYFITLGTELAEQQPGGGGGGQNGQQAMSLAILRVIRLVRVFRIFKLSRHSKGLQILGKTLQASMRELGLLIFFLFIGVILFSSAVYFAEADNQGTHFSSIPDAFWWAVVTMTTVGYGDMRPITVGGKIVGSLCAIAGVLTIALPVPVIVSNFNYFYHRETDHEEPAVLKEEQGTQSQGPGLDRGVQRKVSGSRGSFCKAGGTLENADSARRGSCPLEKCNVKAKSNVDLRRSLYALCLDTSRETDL
# T2 sequence (P16390 whole entry): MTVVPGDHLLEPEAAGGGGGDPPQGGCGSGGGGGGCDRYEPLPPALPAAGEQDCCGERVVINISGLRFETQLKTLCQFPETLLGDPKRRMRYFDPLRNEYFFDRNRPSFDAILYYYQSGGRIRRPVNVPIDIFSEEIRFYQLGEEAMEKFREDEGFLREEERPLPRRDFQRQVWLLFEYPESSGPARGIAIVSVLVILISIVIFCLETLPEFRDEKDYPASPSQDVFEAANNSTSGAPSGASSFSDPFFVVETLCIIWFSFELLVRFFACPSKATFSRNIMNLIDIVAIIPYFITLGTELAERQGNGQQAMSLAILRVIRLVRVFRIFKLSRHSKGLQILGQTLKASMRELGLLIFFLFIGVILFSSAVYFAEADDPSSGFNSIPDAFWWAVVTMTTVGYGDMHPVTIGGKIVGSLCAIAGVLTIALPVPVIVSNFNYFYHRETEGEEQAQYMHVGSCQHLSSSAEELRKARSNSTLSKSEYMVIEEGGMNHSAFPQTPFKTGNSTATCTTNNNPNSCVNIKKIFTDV
compound,measurement,setting,value
"COc1cccc2c(=O)c3ccccc3n(CCCCOc3ccccc3)c12 [Compound 28, 9,10-Dihydro-4-methoxy-N-(4-phenoxybutyl)acridin-9-one]",IC50,Kv1.5 [1],450 nM
same,Selectivity IC50 (Kv1.5)/IC50 (Kv1.3),Kv1.5 [1],2.73
"c1ccc(OCCCCOc2ccccc2)cc1 [Compound 15, 1,1'[1,4-Butanediyl(oxy)]bis-benzene]",IC50,Kv1.3 [2],> 10000 nM
"COc1c2ccoc2c(OCCCCOc2ccccc2)c2oc(=O)cc(C)c12 [Compound 63, 5-Methoxy-4-methyl-8-(4-phenoxybutoxy)psoralen]",IC50,Kv1.5 [1],280 nM
same,Times more potent on Kv1.5 than on Kv1.3,Kv1.5 [1],roughly 3 times
same,Selectivity IC50 (Kv1.5)/IC50 (Kv1.3),Kv1.5 [1],0.88
same,Kinetics of block (mode of Kv1.3 block),Kv1.3 [2],open-channel blockers
"COc1ccc2c(OCCCCOc3ccccc3)c3ccoc3nc2c1OC [Compound 35, 7,8-Dimethoxy-4-(4-phenoxybutoxy)furo[2,3-b]quinoline]",Kinetics of block (mode of Kv1.3 block),Kv1.3 [2],block the C-type inactivated state; also recorded: use-dependence
"Cc1cc(=O)c2c(OCCCCOc3ccccc3)c3c(cc2o1)OCO3 [Compound 56, 2-Methyl-6,7-methylendioxy-5-(4-phenoxybutoxy)-4H-[1]benzopyran-4-one]",Times more potent on Kv1.5 than on Kv1.3,Kv1.5 [1],roughly 3 times
"COc1cc2nc3occc3c(OCCCCOc3ccccc3)c2cc1OC [Compound 34, 6,7-Dimethoxy-4-(4-phenoxybutoxy)furo[2,3-b]quinoline]",IC50,Kv1.5 [1],480 nM
same,Selectivity IC50 (Kv1.5)/IC50 (Kv1.3),Kv1.5 [1],3.2
same,Kinetics of block (mode of Kv1.3 block),Kv1.3 [2],block the C-type inactivated state; also recorded: use-dependence
"c1ccc(OCCCCOc2cccc3ccccc23)cc1 [Compound 16, 1-(4-Phenoxybutoxy)naphthalene]",IC50,Kv1.3 [2],> 10000 nM
"O=C1c2ccccc2C(=O)c2c(OCCCCOc3ccccc3)cccc21 [Compound 25, 1-(4-Phenoxybutoxy)anthraquinone]",IC50,Kv1.5 [1],10000 nM
same,Selectivity IC50 (Kv1.5)/IC50 (Kv1.3),Kv1.5 [1],1.43
"COc1cc2nc3occc3c(OC)c2cc1OC [kokusagenine, 4,6,7-trimethoxyfuro[2,3-b]quinoline]",IC50,Kv1.3 [3],10000 nM
"O=c1cc(OCCCCOc2ccccc2)c2ccccc2o1 [Compound 21, 4-(4-Phenoxybutoxy)-2H-[1]benzopyran-2-one]",IC50,Kv1.5 [1],1500 nM
same,Selectivity IC50 (Kv1.5)/IC50 (Kv1.3),Kv1.5 [1],1.69
"COc1c2ccoc2cc2oc(=O)ccc12 [Compound 5-MOP, 5-methoxypsoralen]",Selectivity IC50 (Kv1.5)/IC50 (Kv1.3),Kv1.5 [4],1.75
same,IC50,Kv1.5 [4],177000 nM
"c1ccc(OCCCCOc2cc3ccccc3c3ccccc23)cc1 [Compound 26, 9-(4-Phenoxybutoxy)phenanthrene]",IC50,Kv1.3 [2],> 10000 nM
"O=c1ccc2c(OCCCCOc3ccccc3)c3ccoc3cc2o1 [PAP-1, 5-(4-phenoxybutoxy)psoralen]",IC50,Kv1.5 [4],45 nM
same,phototoxicity,[5],not phototoxic
same,in vitro or in vivo toxicity,[6],does not display any in vitro or in vivo toxicity
same,Changes in liver enzymes or liver pathology,[7],does not lead to any changes in liver enzymes or liver pathology
same,Effect on onset and incidence of type-1 diabetes,type-1 diabetes,significantly delays the onset and reduces the incidence of type-1 diabetes
same,Effect on oxazolone-induced allergic contact dermatitis,[8],effectively suppresses oxazolone-induced allergic contact dermatitis
same,Potency on Kv1.3 in comparison to 5-MOP,Kv1.3 [2],more than 1000 fold
"c1ccc(OCCCCOc2ncnc3ccccc23)cc1 [Compound 19, 4-(4-Phenoxybutoxy)quinazoline]",IC50,Kv1.5 [1],~25000 nM
same,Effect on Kv1.3,Kv1.3 [2],ineffective
"c1ccc(OCCCCOc2ccnc3ccccc23)cc1 [Compound 17, 4-(4-Phenoxybutoxy)quinoline]",IC50,Kv1.5 [1],3500 nM
same,Selectivity (IC50 for Kv1.5 divided by the IC50 for Kv1.3),Kv1.5 [1],0.34 fold
same,Times more potent on Kv1.5 than on Kv1.3,Kv1.5 [1],roughly 3 times
same,Selectivity IC50 (Kv1.5)/IC50 (Kv1.3),Kv1.5 [1],< 0.35
same,Effect on Kv1.3,Kv1.3 [2],ineffective
"COc1c2occc2c(OCCCCOc2ccccc2)c2c(=O)cc(C)oc12 [Compound 37, 9-Methoxy-7-methyl-4-(4-phenoxybutoxy)-5H-furo[3,2-g][1]benzopyran-5-one]",IC50,Kv1.5 [1],2500 nM
same,Selectivity IC50 (Kv1.5)/IC50 (Kv1.3),Kv1.5 [1],1.67
"Cc1cc(=O)c2c(OCCCCOc3ccccc3)c3ccoc3cc2o1 [Compound 36, 7-Methyl-4-(4-phenoxybutoxy)-5H-furo[3,2-g][1]benzopyran-5-one]",IC50,Kv1.5 [1],310 nM
same,Selectivity IC50 (Kv1.5)/IC50 (Kv1.3),Kv1.5 [1],1.33
same,Kinetics of block (mode of Kv1.3 block),Kv1.3 [2],block the C-type inactivated state; also recorded: use-dependence
"COc1c2occc2c(OC)c2c(OCCCCOc3ccccc3)cc(=O)oc12 [Compound 23, 5,8-Dimethoxy-4-(4-phenoxybutoxy)psoralen]",IC50,Kv1.5 [1],850 nM
same,Selectivity IC50 (Kv1.5)/IC50 (Kv1.3),Kv1.5 [1],1.89
"O=c1ccc2c(OCCCCOc3ccccc3)cccc2o1 [Compound 42, 5-(4-Phenoxybutoxy)-2H-[1]benzopyran-2-one]",IC50,Kv1.5 [1],520 nM
same,Selectivity IC50 (Kv1.5)/IC50 (Kv1.3),Kv1.5 [1],3.47
"S=c1ccc2c(OCCCCOc3ccccc3)c3ccoc3cc2o1 [Compound 73, 4-(4-Phenoxybutoxy)-7H-furo[3,2-g]chromene-7-thione]",IC50,Kv1.5 [1],380 nM
same,Times more potent on Kv1.5 than on Kv1.3,Kv1.5 [1],22 times
same,Selectivity IC50 (Kv1.5)/IC50 (Kv1.3),Kv1.5 [1],22
same,Stability in DMSO stock solutions (HPLC),[9]; DMSO stock solutions,more than 12 months
same,Stability in Ringer solution (HPLC),[9]; Ringer solution,at least 24 hours
same,Kinetics of block (mode of Kv1.3 block),Kv1.3 [2],block the C-type inactivated state; also recorded: use-dependence
